From patent US7902361B2, “Pyrimidin-4-yl-3, 4-thione compounds and their use in therapy” (Cyclacel Limited, priority 2003, dated 2011)

What was measured:
Type in all cases: biochemical
[1] = molecular target: CDK7/cyclin H (Homo sapiens, UniProt P50613); assay: Kinase assay CDK7/cyclin H; conditions: Ki calculated (Cheng-Prusoff) from experimentally determined IC50 and Km,ATP; read-out: Kinase Inhibition Ki CDK7 - cyclin H
Method: (§1) The compounds from the examples above were investigated for their ability to inhibit the enzymatic activity of various protein kinases. This was achieved by measurement of incorporation of radioactive phosphate from ATP into appropriate polypeptide substrates. Recombinant protein kinases and kinase complexes were produced or obtained commercially. Assays were performed using 96-well plates and appropriate assay buffers (typically 25 mM β-glycerophosphate, 20 mM MOPS, 5 mM EGTA, 1 mM DTT, 1 mM […], pH 7.4), into which were added 2-4 μg of active enzyme with appropriate substrates. The reactions were initiated by addition of Mg/ATP mix (15 mM MgCl2+100 μM ATP with 30-50 kBq per well of [γ-^32P]-ATP) and mixtures incubated as required at 30° C. Reactions were stopped on ice, followed by filtration through p81 filterplates or GF/C filterplates (Whatman Polyfiltronics, Kent, UK). After washing 3 times with 75 mM aq orthophosphoric acid, plates were dried, scintillant added and incorporated radioactivity measured in a scintillation counter (TopCount, Packard Instruments, Pangbourne, Berks, UK). Compounds for kinase assay were made up as 10 mM stocks in DMSO and diluted into 10% DMSO in assay buffer.

[2] = molecular target: CDK2/cyclin E (Homo sapiens, UniProt P24941); assay: Kinase assay CDK2/cyclin E; conditions: Ki calculated (Cheng-Prusoff) from experimentally determined IC50 and Km,ATP; read-out: Kinase Inhibition Ki CDK2 - cyclin E
Method: as §1, with “The reactions were initiated by addition of Mg/ATP mix (15 mM MgCl2+100 μM ATP with 30-50 kBq per well of [γ-^32P]-ATP) and mixtures incubated as required at 30° C.” left out

[3] = molecular target: CDK1/cyclin B (Homo sapiens, UniProt P06493); assay: Kinase assay CDK1/cyclin B (radioactive phosphate incorporation); conditions: Ki calculated (Cheng-Prusoff) from experimentally determined IC50 and Km,ATP; read-out: Kinase Inhibition Ki CDK1 - cyclin B
Chain of CDK1/cyclin B (P06493 whole entry, species assumed): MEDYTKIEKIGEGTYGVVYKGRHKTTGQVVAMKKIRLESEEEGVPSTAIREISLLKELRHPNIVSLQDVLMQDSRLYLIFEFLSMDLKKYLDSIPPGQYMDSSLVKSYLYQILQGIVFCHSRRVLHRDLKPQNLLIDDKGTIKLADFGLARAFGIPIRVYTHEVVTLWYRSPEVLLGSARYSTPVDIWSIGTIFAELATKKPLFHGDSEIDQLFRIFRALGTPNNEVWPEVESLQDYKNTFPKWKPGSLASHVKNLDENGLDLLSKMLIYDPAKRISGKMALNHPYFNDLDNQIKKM
Chain of CDK1/cyclin B (P14635 whole entry partner, species assumed): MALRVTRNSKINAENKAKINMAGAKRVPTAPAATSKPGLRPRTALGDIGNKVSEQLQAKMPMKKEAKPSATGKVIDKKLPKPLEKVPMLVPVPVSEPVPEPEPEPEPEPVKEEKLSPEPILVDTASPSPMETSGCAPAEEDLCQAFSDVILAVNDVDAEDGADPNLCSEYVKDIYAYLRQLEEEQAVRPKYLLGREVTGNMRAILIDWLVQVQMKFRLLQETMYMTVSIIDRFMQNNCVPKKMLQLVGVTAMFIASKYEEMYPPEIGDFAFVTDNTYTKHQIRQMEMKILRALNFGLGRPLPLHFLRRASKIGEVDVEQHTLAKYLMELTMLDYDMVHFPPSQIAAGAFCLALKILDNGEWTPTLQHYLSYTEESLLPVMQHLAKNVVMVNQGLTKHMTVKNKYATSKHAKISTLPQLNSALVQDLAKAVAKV
Method: as §1, with “The reactions were initiated by addition of Mg/ATP mix (15 mM MgCl2+100 μM ATP with 30-50 kBq per well of [γ-^32P]-ATP) and mixtures incubated as required at 30° C.” left out

[4] = molecular target: CDK9/cyclin T1 (Homo sapiens, UniProt P50750); assay: Kinase assay CDK9/cyclin T1; conditions: Ki calculated (Cheng-Prusoff) from experimentally determined IC50 and Km,ATP; read-out: Kinase Inhibition Ki CDK9 - cyclin T1
Chain of CDK9/cyclin T1 (P50750 whole entry, species assumed): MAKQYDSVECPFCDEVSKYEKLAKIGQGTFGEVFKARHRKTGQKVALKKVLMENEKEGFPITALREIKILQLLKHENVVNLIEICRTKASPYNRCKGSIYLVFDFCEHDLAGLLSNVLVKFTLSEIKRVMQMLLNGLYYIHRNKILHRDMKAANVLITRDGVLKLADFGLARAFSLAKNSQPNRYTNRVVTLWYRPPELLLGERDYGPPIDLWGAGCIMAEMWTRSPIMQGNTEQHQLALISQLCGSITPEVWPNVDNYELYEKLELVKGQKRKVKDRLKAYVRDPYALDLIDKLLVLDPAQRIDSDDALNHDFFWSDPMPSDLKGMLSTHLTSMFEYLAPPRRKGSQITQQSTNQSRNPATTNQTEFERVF
Chain of CDK9/cyclin T1 (O60563 whole entry partner, species assumed): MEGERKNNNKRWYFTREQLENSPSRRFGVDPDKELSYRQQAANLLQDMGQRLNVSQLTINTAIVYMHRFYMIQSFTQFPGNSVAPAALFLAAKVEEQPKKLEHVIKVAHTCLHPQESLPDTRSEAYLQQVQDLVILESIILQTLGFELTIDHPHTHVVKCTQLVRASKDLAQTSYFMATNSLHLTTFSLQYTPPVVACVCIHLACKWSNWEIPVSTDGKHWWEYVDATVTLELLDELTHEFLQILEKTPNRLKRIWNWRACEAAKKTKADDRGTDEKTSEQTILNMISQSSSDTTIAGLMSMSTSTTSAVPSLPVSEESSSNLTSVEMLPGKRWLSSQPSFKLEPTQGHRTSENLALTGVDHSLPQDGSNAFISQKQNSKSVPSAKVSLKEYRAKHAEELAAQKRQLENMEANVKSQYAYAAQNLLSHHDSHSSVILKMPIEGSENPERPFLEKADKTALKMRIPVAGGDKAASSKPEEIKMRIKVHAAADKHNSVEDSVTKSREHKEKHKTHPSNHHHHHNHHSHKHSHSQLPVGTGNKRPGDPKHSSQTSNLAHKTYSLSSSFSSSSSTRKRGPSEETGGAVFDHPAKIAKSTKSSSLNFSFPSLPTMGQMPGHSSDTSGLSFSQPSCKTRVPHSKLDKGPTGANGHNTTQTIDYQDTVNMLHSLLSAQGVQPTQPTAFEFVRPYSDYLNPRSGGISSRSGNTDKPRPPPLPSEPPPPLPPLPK
Method: as §1

[5] = molecular target: CDK4/cyclin D1 (Homo sapiens, UniProt P11802); assay: Kinase assay CDK4/cyclin D1; conditions: Ki calculated (Cheng-Prusoff) from experimentally determined IC50 and Km,ATP; read-out: Kinase Inhibition Ki CDK4 - cyclin D1
Chain of CDK4/cyclin D1 (P11802 whole entry, species assumed): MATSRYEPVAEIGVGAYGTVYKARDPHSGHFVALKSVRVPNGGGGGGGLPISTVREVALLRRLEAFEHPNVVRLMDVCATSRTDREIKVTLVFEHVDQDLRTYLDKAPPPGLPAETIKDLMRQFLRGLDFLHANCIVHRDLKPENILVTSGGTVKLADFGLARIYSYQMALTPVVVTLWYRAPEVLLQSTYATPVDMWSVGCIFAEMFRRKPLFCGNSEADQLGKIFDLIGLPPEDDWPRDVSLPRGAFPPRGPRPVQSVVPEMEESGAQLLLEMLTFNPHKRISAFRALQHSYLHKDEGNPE
Chain of CDK4/cyclin D1 (P24385 whole entry partner, species assumed): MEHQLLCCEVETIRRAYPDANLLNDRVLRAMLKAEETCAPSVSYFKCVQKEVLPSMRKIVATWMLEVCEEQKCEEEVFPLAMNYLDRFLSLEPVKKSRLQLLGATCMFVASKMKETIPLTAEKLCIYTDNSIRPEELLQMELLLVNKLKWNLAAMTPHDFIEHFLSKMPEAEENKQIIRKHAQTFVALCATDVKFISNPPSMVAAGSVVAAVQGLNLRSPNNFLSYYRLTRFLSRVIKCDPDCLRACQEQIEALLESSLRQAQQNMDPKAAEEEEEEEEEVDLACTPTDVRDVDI
Method: as §1

[6] = molecular target: CDK2/cyclin A (Homo sapiens, UniProt P24941); assay: Kinase assay CDK2/cyclin A; conditions: Ki calculated (Cheng-Prusoff) from experimentally determined IC50 and Km,ATP; read-out: Kinase Inhibition Ki CDK2 - cyclin A
Method: as §1, with “The reactions were initiated by addition of Mg/ATP mix (15 mM MgCl2+100 μM ATP with 30-50 kBq per well of [γ-^32P]-ATP) and mixtures incubated as required at 30° C.” left out

Chain of CDK7/cyclin H (P50613 whole entry, species assumed): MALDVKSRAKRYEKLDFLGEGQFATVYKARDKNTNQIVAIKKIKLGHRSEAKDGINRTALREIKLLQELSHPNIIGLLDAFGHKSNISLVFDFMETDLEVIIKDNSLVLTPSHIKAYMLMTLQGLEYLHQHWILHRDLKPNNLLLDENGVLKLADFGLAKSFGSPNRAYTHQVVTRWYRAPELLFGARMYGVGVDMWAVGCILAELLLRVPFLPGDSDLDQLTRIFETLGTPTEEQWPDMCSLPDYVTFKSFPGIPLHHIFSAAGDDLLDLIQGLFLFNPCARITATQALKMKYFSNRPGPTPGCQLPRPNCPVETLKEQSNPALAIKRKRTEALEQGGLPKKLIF
Chain of CDK7/cyclin H (P51946 whole entry partner, species assumed): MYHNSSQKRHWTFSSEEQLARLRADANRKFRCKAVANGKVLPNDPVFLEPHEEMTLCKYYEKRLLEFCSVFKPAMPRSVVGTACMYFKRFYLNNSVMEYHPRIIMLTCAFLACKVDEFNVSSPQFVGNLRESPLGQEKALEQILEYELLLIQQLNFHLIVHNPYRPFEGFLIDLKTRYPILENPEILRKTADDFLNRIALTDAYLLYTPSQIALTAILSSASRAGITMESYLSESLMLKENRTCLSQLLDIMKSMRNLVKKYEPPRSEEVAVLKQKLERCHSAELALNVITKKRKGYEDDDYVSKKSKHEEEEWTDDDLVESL

Row | SMILES | Ki [1] [nM] | Ki [2] [nM] | Ki [3] [nM] | Ki [4] [nM] | Ki [5] [nM] | Ki [6] [nM]
1 | Cc1c(-c2ccnc(Nc3ccc(Cl)cc3)n2)sc(=O)n1CCC(C)C [Compound 31, 5-[2-(4-Chloro-phenylamino)-pyrimidin-4-yl]-4-methyl-3-(3-methyl-butyl)-3H-thiazol-2-one] | 430 |  |  |  |  | 
2 | Cc1c(-c2ccnc(Nc3cc([N+](=O)[O-])ccc3N(C)C)n2)sc(=O)n1C [Compound 37, 5-[2-(2-Dimethylamino-5-nitro-phenylamino)-pyrimidin-4-yl]-3,4-dimethyl-3H-thiazol-2-one] |  | 8600 | 9900 |  |  | 
3 | Cc1ccc([N+](=O)[O-])cc1Nc1nccc(-c2sc(=O)n(C)c2C)n1 [Compound 20, 3,4-Dimethyl-5-[2-(2-methyl-5-nitro-phenylamino)-pyrimidin-4-yl]-3H-thiazol-2-one] | 910 | 6500 |  | 85 |  | 
4 | CCn1c(C)c(-c2ccnc(Nc3cccc(OC)c3)n2)sc1=O [Compound 50, 3-Ethyl-5-[2-(3-methoxy-phenylamino)-pyrimidin-4-yl]-4-methyl-3H-thiazol-2-one] | 140 |  |  | 80 |  | 
5 | CCn1c(C)c(-c2ccnc(Nc3ccc(N(C)C)c([N+](=O)[O-])c3)n2)sc1=O [Compound 29, 5-[2-(4-Dimethylamino-3-nitro-phenylamino)-pyrimidin-4-yl]-3-ethyl-4-methyl-3H-thiazol-2-one] | 43 | 33 |  | 7 | 170 | 
6 | Cc1c(-c2ccnc(Nc3ccc(Cl)nc3)n2)sc(=O)n1C [Compound 32, 5-[2-(6-Chloro-pyridin-3-ylamino)-pyrimidin-4-yl]-3,4-dimethyl-3H-thiazol-2-one] |  | 68 | 500 | 6.5 |  | 
7 | CC(=O)Nc1nccc(-c2sc(=O)n(C)c2C)n1 [Compound 85, N-[4-(3,4-Dimethyl-2-oxo-2,3-dihydro-thiazol-5-yl)-pyrimidin-2-yl]-acetamide] |  |  |  | 290 |  | 
8 | Cc1cc(Nc2nccc(-c3sc(=O)n(C)c3C)n2)ccc1F [Compound 12, 5-[2-(4-Fluoro-3-methyl-phenylamino)-pyrimidin-4-yl]-3,4-dimethyl-3H-thiazol-2-one] |  | 66 | 380 | 24 |  | 
9 | Cc1c(-c2ccnc(Nc3ccc(Cl)nc3)n2)sc(=O)n1CCC(C)C [Compound 34, 5-[2-(6-Chloro-pyridin-3-ylamino)-pyrimidin-4-yl]-4-methyl-3-(3-methyl-butyl)-3H-thiazol-2-one] | 230 | 1100 | 3500 | 1800 |  | 600
10 | Cc1c(-c2ccnc(Nc3ccc(O)cc3)n2)sc(=O)n1C [Compound 3, 5-[2-(4-Hydroxy-phenylamino)-pyrimidin-4-yl]-3,4-dimethyl-3H-thiazol-2-one] |  |  |  | 0.7 |  | 
11 | Cc1c(-c2ccnc(Nc3cccc(C(F)(F)F)c3)n2)sc(=O)n1C [Compound 19, 3,4-Dimethyl-5-[2-(3-trifluoromethyl-phenylamino)-pyrimidin-4-yl]-3H-thiazol-2-one] | 5100 | 1700 |  | 1800 |  | 
12 | CCn1c(C)c(-c2ccnc(Nc3ccc(Cl)c(C(=O)OC)c3)n2)sc1=O [Compound 25, 2-Chloro-5-[4-(3-ethyl-4-methyl-2-oxo-2,3-dihydro-thiazol-5-yl)-pyrimidin-2-ylamino]-benzoic acid methyl ester] |  | 2700 |  | 4400 |  | 23000
13 | Cc1c(-c2ccnc(NCc3cccnc3)n2)sc(=O)n1C [Compound 83, 3,4-Dimethyl-5-{2-[(pyridin-3-ylmethyl)-amino]-pyrimidin-4-yl}-3H-thiazol-2-one] |  | 1600 |  | 320 | 1300 | 
14 | Cc1c(-c2ccnc(N)n2)sc(=O)n1C [Compound 84, 5-(2-Amino-pyrimidin-4-yl)-3,4-dimethyl-3H-thiazol-2-one] |  |  |  | 130 |  | 
